Patent US20250188067A1, “SALT AND CRYSTAL FORM OF DIPEPTIDYL PEPTIDASE INHIBITOR COMPOUND” (HAISCO PHARMACEUTICALS PTE. LTD., priority 2022, published 2025)
≈ marks a conversion by molar mass, not a printed value.

Assays:
[1] = biological target: Recombinant human DPP1 enzyme (Homo sapiens (Human), UniProt P53634); assay: Activity detection test of DPP1 enzyme in vitro
[2] = The pharmacokinetic test of rat; format: in vivo; conditions: male SD rats, Gavage (3 mg/kg)
Protocol: • 1.1 Test animals: male SD rats, about 220 g, 6 to 8 weeks old, 6 rats/compound. Purchased from Chengdu Senwell Experimental Animals Co., Ltd. • 1.2 Test design: On the day of the test, 6 SD rats were randomly divided into groups according to body weight. Water and no food for 12 to 14 hours one day before administration, and food 4 hours after administration.
Vehicle for intravenous administration: 5% DMA+5% Solutol+90% Saline; vehicle for gavage administration: 0.5% MC; the reference compound INS1007, which is Compound 2 in patent WO2015110826A1, was prepared according to the method of the patent.
Before and after administration, 0.1 mL of blood was taken from the orbit under isoflurane anesthesia. It was placed in an EDTAK2 centrifuge tube, and centrifuged at 5000 rpm and 4° C. for 10 min, and the plasma was collected. Time points of blood collection in the intravenous groups: 0, 5, 15, 30 min, 1, 2, 4, 6, 8, 24 h; time points of blood collection in the gavage groups: 0, 5, 15, 30 min, 1, 2, 4, 6, 8, 24 h. Before analysis and detection, all samples were stored at −80° C.

Dynamic solubility = format: physicochemical; conditions: thermodynamic from solid, 37° C.
Protocol: A sample of about 0.9 mL was taken, centrifuged and filtered, tested the solid by XRPD, and tested the liquid by HPLC concentration and pH.

[3] = Hygroscopicity by Dynamic Vapour Sorption (DVS); format: physicochemical; conditions: 25° C./80% RH
Protocol: The hygroscopicity of the crystalline A of hydrochloride, crystalline A of malate and crystalline B of adipate was evaluated by a Dynamic Vapour Sorption (DVS) instrument. Crystalline form […] starts with ambient humidity (˜60% RH), and crystalline form B starts with 0% relative humidity (0% RH). The test collected mass change percentage of the sample under constant temperature conditions of 25° C., with changes in humidity (60% RH-95% RH-0% RH-95% RH or 0% RH-95% RH-0% RH). The test results are shown in FIGS. 103, 104 and 105 respectively.

[4] = HPLC impurities of solid stability samples; format: physicochemical
[5] = Solid stability evaluation (XRPD and HPLC) at 25° C./60% RH and 40° C./75% RH; format: physicochemical; conditions: for Crystalline form change: XRPD

Chain of Recombinant human DPP1 enzyme (P53634 25-134): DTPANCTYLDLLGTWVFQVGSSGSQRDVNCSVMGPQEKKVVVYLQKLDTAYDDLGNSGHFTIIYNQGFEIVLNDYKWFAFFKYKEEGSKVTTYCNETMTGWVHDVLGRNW
Chain of Recombinant human DPP1 enzyme (P53634 231-394): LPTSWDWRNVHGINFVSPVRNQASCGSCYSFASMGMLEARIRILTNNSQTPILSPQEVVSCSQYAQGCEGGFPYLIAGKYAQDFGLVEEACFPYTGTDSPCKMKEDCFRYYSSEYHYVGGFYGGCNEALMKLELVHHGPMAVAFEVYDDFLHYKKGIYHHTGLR
Chain of Recombinant human DPP1 enzyme (P53634 395-463): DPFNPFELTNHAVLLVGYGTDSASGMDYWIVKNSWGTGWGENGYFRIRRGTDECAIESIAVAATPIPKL

Row | water sorption [3] [%] | HPLC peak at RRT 1.00 ([4]; RRT 1.00, 25° C./60% RH/1 W) | HPLC peak at RRT 1.00 ([4]; RRT 1.00, 25° C./60% RH/3 W) | HPLC peak at RRT 1.00 ([4]; RRT 1.00, 40° C./75% RH/1 W) | HPLC peak at RRT 1.00 ([4]; RRT 1.00, Starting) | HPLC impurity at RRT 1.12 ([4]; RRT 1.12, 25° C./60% RH/1 W) | HPLC impurity at RRT 1.12 ([4]; RRT 1.12, 25° C./60% RH/3 W) | HPLC impurity at RRT 1.12 ([4]; RRT 1.12, 40° C./75% RH/1 W) | HPLC impurity at RRT 1.12 ([4]; RRT 1.12, 40° C./75% RH/3 W) | HPLC impurity at RRT 1.12 ([4]; RRT 1.12, Starting) | HPLC purity (Area %) ([5]; 25° C./60% RH, 1 week) | Purity/Starting purity (%) ([5]; 25° C./60% RH, 1 week) | Crystalline form change ([5]; 25° C./60% RH, 1 week) | HPLC purity (Area %) ([5]; 25° C./60% RH, 3 weeks) | Purity/Starting purity (%) ([5]; 25° C./60% RH, 3 weeks) | HPLC purity (Area %) ([5]; 40° C./75% RH, 1 week) | Purity/Starting purity (%) ([5]; 40° C./75% RH, 1 week) | Crystalline form change ([5]; 40° C./75% RH, 1 week) | HPLC purity (Area %) ([5]; 40° C./75% RH, 3 weeks) | Purity/Starting purity (%) ([5]; 40° C./75% RH, 3 weeks) | SMILES | also measured
1 |  |  |  |  |  |  |  |  |  |  |  |  |  |  |  |  |  |  |  |  | Cn1c(=O)oc2ccc(-c3ccc(C[C@@H](C#N)NC(=O)[C@@H]4CNCCCO4)c(F)c3)cc21 [Compound I, (S)—N—((S)-1-cyano-2-(2-fluoro-4-(3-methyl-2-oxo-2,3-dihydrobenzo[d]oxazol-5-yl)phenyl)ethyl)-1,4-oxazepane-2-carboxamide] | inhibitory activity against DPP1 (conclusion in words) [1]: high inhibitory activity; F [2]: >100%; solubility at 1 h (Dynamic solubility; simulated gastric fluid, SGF): > 5200 µg/mL; solubility at 2 h (Dynamic solubility; simulated gastric fluid, SGF): > 5200 µg/mL; solubility at 4 h (Dynamic solubility; simulated gastric fluid, SGF): > 5300 µg/mL; solubility at 24 h (Dynamic solubility; simulated gastric fluid, SGF): > 5200 µg/mL; solubility at 1 h (Dynamic solubility; FaSSIF): 370 µg/mL (≈ 844 µM); solubility at 2 h (Dynamic solubility; FaSSIF): 360 µg/mL (≈ 821 µM); solubility at 4 h (Dynamic solubility; FaSSIF): 350 µg/mL (≈ 798 µM); solubility at 24 h (Dynamic solubility; FaSSIF): 290 µg/mL (≈ 661 µM); solubility at 1 h (Dynamic solubility; FeSSIF): 2700 µg/mL (≈ 6160 µM); solubility at 2 h (Dynamic solubility; FeSSIF): 2700 µg/mL (≈ 6160 µM); solubility at 4 h (Dynamic solubility; FeSSIF): 2700 µg/mL (≈ 6160 µM); solubility at 24 h (Dynamic solubility; FeSSIF): 2300 µg/mL (≈ 5250 µM); solubility at 1 h (Dynamic solubility; water, H2O): 35 µg/mL (≈ 79.8 µM); solubility at 2 h (Dynamic solubility; water, H2O): 30 µg/mL (≈ 68.4 µM); solubility at 4 h (Dynamic solubility; water, H2O): 16 µg/mL (≈ 36.5 µM); solubility at 24 h (Dynamic solubility; water, H2O): 16 µg/mL (≈ 36.5 µM)
2 |  |  |  |  |  |  |  |  |  |  |  |  |  |  |  |  |  |  |  |  | Cn1c(=O)oc2ccc(-c3ccc(C[C@@H](C#N)NC(=O)[C@@H]4CNCCCO4)cc3)cc21 [INS1007, reference compound] | F [2]: 88.1%
3 | 0.47 | 99.60 | 99.67 | 99.59 | 99.63 | 0.14 | 0.13 | 0.12 | 0.18 | 0.16 | 99.60 | 100.0 | No | 99.67 | 100.0 | 99.59 | 100.0 | No | 99.17 | 99.5 | Cl.Cn1c(=O)oc2ccc(-c3ccc(C[C@@H](C#N)NC(=O)[C@@H]4CNCCCO4)c(F)c3)cc21 [crystalline A of hydrochloride] | HPLC impurity at RRT 1.06 ([4]; RRT 1.06, 25° C./60% RH/1 W): 0.26; HPLC impurity at RRT 1.06 ([4]; RRT 1.06, 25° C./60% RH/3 W): 0.21; HPLC impurity at RRT 1.06 ([4]; RRT 1.06, 40° C./75% RH/1 W): 0.20; HPLC impurity at RRT 1.06 ([4]; RRT 1.06, Starting): 0.21; HPLC impurity at RRT 1.16 ([4]; RRT 1.16, 40° C./75% RH/3 W): 0.06; HPLC impurity at RRT 1.28 ([4]; RRT 1.28, 40° C./75% RH/1 W): 0.09; HPLC impurity at RRT 1.28 ([4]; RRT 1.28, 40° C./75% RH/3 W): 0.17; HPLC purity (Area %) ([5]; Starting): 99.63 Area %
4 | 1.27 | 99.89 | 99.91 | 99.92 | 99.90 | 0.11 | 0.09 | 0.08 | 0.08 | 0.10 | 99.89 | 100.0 | No | 99.91 | 100.0 | 99.92 | 100.0 | No | 99.92 | 100.0 | Cn1c(=O)oc2ccc(-c3ccc(C[C@@H](C#N)NC(=O)[C@@H]4CNCCCO4)c(F)c3)cc21.O=C(O)CC(O)C(=O)O [crystalline A of malate] | HPLC peak at RRT 1.00 ([4]; RRT 1.00, 40° C./75% RH/3 W): 99.92; HPLC purity (Area %) ([5]; Starting): 99.90 Area %
5 | 0.24 | 99.71 | 99.72 | 99.74 | 99.74 | 0.29 | 0.28 | 0.26 | 0.28 | 0.26 | 99.71 | 100.0 | No | 99.72 | 100.0 | 99.74 | 100.0 | No | 99.72 | 100.0 | Cn1c(=O)oc2ccc(-c3ccc(C[C@@H](C#N)NC(=O)[C@@H]4CNCCCO4)c(F)c3)cc21.O=C(O)CCCCC(=O)O [crystalline B of adipate] | HPLC peak at RRT 1.00 ([4]; RRT 1.00, 40° C./75% RH/3 W): 99.72; HPLC purity (Area %) ([5]; Starting): 99.74 Area %
